{"source": "paper PMC4999848", "about": "(Toxins, 2016)", "key": {"pancreatic lipase": {"molecular_target": "T1, pancreatic lipase (Sus scrofa, UniProt P00591)", "T1 construct": "purchased Sigma-Aldrich", "T1 sequence (P00591 whole entry)": "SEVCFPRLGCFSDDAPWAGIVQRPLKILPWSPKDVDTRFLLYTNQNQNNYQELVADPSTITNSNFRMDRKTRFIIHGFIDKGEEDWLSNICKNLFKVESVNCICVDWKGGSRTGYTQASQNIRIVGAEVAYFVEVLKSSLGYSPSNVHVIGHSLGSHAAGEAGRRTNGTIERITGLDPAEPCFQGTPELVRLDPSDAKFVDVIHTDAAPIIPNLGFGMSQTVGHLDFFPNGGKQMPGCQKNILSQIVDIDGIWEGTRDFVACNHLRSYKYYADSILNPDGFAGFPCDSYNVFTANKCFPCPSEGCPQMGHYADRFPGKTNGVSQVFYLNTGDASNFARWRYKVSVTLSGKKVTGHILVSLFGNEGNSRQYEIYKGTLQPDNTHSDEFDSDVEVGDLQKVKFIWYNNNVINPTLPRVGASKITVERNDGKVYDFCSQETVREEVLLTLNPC", "test": "Deacetylation of 3/15ADON by pancreatic lipase", "type": "in vitro ADME, porcine", "conditions": "lipase 0.75 mg/mL, PBS pH 7.4, 37 °C, substrate 100 μM", "experimental": "(§1) Stock solutions of DON, 3ADON and 15ADON at 2 mg/mL were prepared in absolute ethanol and stored at −20 °C. For deacetylation assay, 3- or 15ADON were incubated with cells, explants, bacteria or digestive enzymes after being diluted in PBS^++ at a final concentration of 100 μM. PBS^++ solution containing only ethanol (at 1.5% final concentration) or DON (at 100 μM) were used in parallel as negative and positive control, respectively. For cells and explants, deacetylation assay take place in 6-well plates, wells being filled with 2 mL of PBS^++ containing either ethanol, DON, 3- or 15ADON. For fecal bacteria and digestive enzyme assay, deacetylation assay was conducted in 2 mL Eppendorf tubes filled with 1.5 mL of PBS^++ containing either ethanol, DON, 3- or 15ADON. In vitro intestinal digestion by luminal enzymes was performed using porcine enzymes from Sigma-Aldrich and physiological conditions. […] In all cases, aliquots of the reaction solution were collected immediately (i.e., “time zero” sample) or after the indicated time period at 37 °C and analyzed by HPLC. […]\n(§2) Deacetylation was monitoring both in term of disappearance of 3- or 15ADON and formation of DON. […] Quantification was based on calibration with the corresponding standard using Millinium Software (Waters, Saint Quentin Falavier, France)."}, "small intestinal explant": {"system": "small intestinal explant", "test": "Deacetylation of 3/15ADON by human small intestinal explants", "type": "in vitro ADME", "conditions": "for Contribution to total deacetylation activity: Small intestine: percentage of sum of specific activities (Figure 8); for Disappearance of 3/15ADON, specific activity: small intestinal explant, 37 °C, substrate 100 μM; for % of deacetylation: small intestinal explants, 6 h incubation, 100 μM", "description": "Human tissue samples were obtained from patients undergoing surgery at the Hospital Nord of Marseille, unit of general and gastrointestinal surgery according to a collaborative “clinical transfer” project. The procedures were approved by the French ethic committee (CODECOH n° DC-2011-1319). Patients were from both genders (six men, three women), 31–74 years of age, all of European origin. All patients agree to use their tissues for research purposes. Samples were taken from macroscopically unaffected area as identified by the surgeon for intestinal samples or the pathologist for liver resections. Diagnoses leading to surgery were carcinoma for intestine or liver. After resection, the specimens were placed in ice-cold non-sterile Krebs solution implemented and transferred to the school of medicine on the same campus within 5 min, composition of the Krebs solution being previously described. The tissues were rinsed several times and maintained in oxygenated Krebs during 1 h for recovery before final dissection. Intestinal and hepatic resections were extensively washed and maintained in ice-cold culture media containing 1% streptomycin/penicillin solution and 50 μg/mL gentamycin. Tissues were cleaned from vascular vessels and conjunctive tissue using forceps under binocular microscope. In case of intestinal resection, muscularis and plexus were removed and only epithelial layer was kept. Intestinal and hepatic explants (wet weight of 20–30 mg) were then isolated from the cleaned resections using surgical punch (diameter of […]). […] Finally, the explants were washed 3 times with PBS^++ and transferred into 6-well plates before being used for deacetylation assay.\nStock solutions of DON, 3ADON and 15ADON at 2 mg/mL were prepared in absolute ethanol and stored at −20 °C. For deacetylation assay, 3- or 15ADON were incubated with cells, explants, bacteria or digestive enzymes after being diluted in PBS^++ at a final concentration of 100 μM. PBS^++ solution containing only ethanol (at 1.5% final concentration) or DON (at 100 μM) were used in parallel as negative and positive control, respectively. For cells and explants, deacetylation assay take place in 6-well plates, wells being filled with 2 mL of PBS^++ containing either ethanol, DON, 3- or 15ADON. For fecal bacteria and digestive enzyme assay, deacetylation assay was conducted in 2 mL Eppendorf tubes filled with 1.5 mL of PBS^++ containing either ethanol, DON, 3- or 15ADON. In vitro intestinal digestion by luminal enzymes was performed using porcine enzymes from Sigma-Aldrich and physiological conditions. Briefly, 3- or 15ADON were incubated with pepsin (at 1.6 mg/mL corresponding to 900 U/mL), trypsin (at 0.35 mg/mL corresponding to 6000 U/mL), pancreatic lipase (at 0.75 mg/mL corresponding to 18 U/mL) or pancreatin (at 1.23 mg/mL, lipase activity >10 U/mL, protease activity >100 U/mL, amylase activity >100 U/mL). Except for pepsin for which the digestion was conducted in HCl solution at 10 mM (pH 2.3), in vitro digestion was performed in PBS^++ (pH 7.4). Finally, deacetylation assay was also performed with commercial pooled S9 fractions from human liver, small intestine and kidneys as well as with pure recombinant human CES1 and CES2. S9 fractions and CES1/2 were used at 0.1 mg/mL and 5 μg/mL (corresponding to CES activity >20 U/mL), respectively. In all cases, aliquots of the reaction solution were collected immediately (i.e., “time zero” sample) or after the indicated time period at 37 °C and analyzed by HPLC. […] In all cases, the experiments were conducted in triplicate (n = 3)."}, "recombinant human CES1": {"molecular_target": "T2, recombinant human CES1 (Homo sapiens, UniProt P23141)", "T2 sequence (P23141 18-567)": "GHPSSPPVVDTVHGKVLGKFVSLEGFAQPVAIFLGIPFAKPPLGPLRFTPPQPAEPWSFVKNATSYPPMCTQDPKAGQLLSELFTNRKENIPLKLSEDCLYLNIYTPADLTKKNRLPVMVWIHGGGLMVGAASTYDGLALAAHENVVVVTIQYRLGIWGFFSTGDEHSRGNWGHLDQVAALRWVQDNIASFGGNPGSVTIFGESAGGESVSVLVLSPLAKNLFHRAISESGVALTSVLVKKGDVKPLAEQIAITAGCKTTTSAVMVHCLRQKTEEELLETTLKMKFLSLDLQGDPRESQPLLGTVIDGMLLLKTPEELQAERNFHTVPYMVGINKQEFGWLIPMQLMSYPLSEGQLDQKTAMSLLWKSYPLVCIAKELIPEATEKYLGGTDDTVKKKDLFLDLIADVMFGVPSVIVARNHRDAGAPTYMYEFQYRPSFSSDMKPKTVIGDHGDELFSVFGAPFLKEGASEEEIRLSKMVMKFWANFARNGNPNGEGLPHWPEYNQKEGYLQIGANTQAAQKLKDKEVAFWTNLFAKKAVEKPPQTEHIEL", "test": "Deacetylation of 3/15ADON by recombinant CES1", "type": "in vitro ADME", "design": "purchased R&D Systems", "conditions": "5 μg/mL CES1, up to 24 h, data not shown", "experimental": "as §1, §2"}}, "note": "Where “and” joins values, the source holds several entries; their conditions need not be identical. Equal entries are not always repeated. Entries after “also recorded” stand apart in the source; their conditions may differ."}
{"compound": "CC(=O)O[C@@H]1C[C@]2(C)[C@@]3(CO)[C@H](O)C(=O)C(C)=C[C@H]3O[C@H]1[C@@]21CO1", "note": "[3ADON, 3-acetyldeoxynivalenol]", "values": [{"measurement": "Disappearance of 3/15ADON, specific activity", "setting": "pancreatic lipase", "value": "48 ± 21", "unit": "pmol/min/mg"}, {"measurement": "Contribution to total deacetylation activity: Small intestine", "setting": "small intestinal explant", "value": 26, "unit": "%"}, {"measurement": "Disappearance of 3/15ADON, specific activity", "setting": "small intestinal explant", "value": "338 pmol/min/mg and 338 ± 69 pmol/min/mg"}, {"measurement": "% of deacetylation", "setting": "small intestinal explant", "value": "67.3% ± 13.8%"}, {"measurement": "Deacetylation activity of CES1 on 3/15ADON", "setting": "recombinant human CES1", "value": "failed at observing any deacetylation activity; also recorded: unable to cause the deacetylation"}]}
{"compound": "CC(=O)OC[C@]12[C@H](O)C(=O)C(C)=C[C@H]1O[C@@H]1[C@H](O)C[C@@]2(C)[C@]12CO2", "note": "[15ADON, 15-acetyldeoxynivalenol]", "values": [{"measurement": "Disappearance of 3/15ADON, specific activity", "setting": "pancreatic lipase", "value": "42 ± 18", "unit": "pmol/min/mg"}, {"measurement": "Contribution to total deacetylation activity: Small intestine", "setting": "small intestinal explant", "value": 13, "unit": "%"}, {"measurement": "Disappearance of 3/15ADON, specific activity", "setting": "small intestinal explant", "value": "85 pmol/min/mg and 85 ± 65 pmol/min/mg"}, {"measurement": "% of deacetylation", "setting": "small intestinal explant", "value": "17.2% ± 13.4%"}, {"measurement": "Deacetylation activity of CES1 on 3/15ADON", "setting": "recombinant human CES1", "value": "failed at observing any deacetylation activity; also recorded: unable to cause the deacetylation"}]}
